This is an account of results in US9249132B2, “Substituted bicyclic aromatic compounds as S-nitrosoglutathione reductase inhibitors” (Nivalis Therapeutics, Inc., priority 2010, dated 2016).

Assay [1] deals with dextran sodium sulfate (DSS)-induced IBD. Description: Acute prophylactic model of DSS-induced IBD. The assay is classed as in vivo, mouse. From the text: Acute and chronic models of dextran sodium sulfate (DSS)-induced IBD in mice were used to explore efficacy of GSNORi against this disease. Acute and chronic DSS-induced IBD are widely used and well characterized models that induce pathological changes in the colon similar to those observed in the human disease. In these models and in human disease, epithelial cells within the crypts of the colon are disrupted, leading to dysfunction of the epithelial barrier and the ensuing tissue inflammation, edema, and ulceration. GSNORi therapy may benefit IBD by restoring s-nitrosoglutathione (GSNO) levels, and thus prevent or reverse the epithelial barrier dysfunction. Experimental IBD was induced by administration of DSS in the drinking water of male C57B1/6 mice (N=8 to 10 mice per group) for 6 consecutive days. GSNORi was dosed orally at doses of 0.1 to 10 mg/kg/day for 10 days starting two days prior to and continuing two days post DSS exposure. Two days post DSS exposure, the effect of GSNORi was assessed in a blinded fashion via endoscopy and histopathology using a five point scale ranging from a score=0 (normal tissue) through a score=4 (ulcerative tissue damage and marked pathological changes). Levels of circulating cytokines involved in inflammatory pathways were also assessed. The effect of GSNORi was compared to vehicle treated controls. The corticosteroid, prednisolone, was used as the positive control in this study and was administered daily at 3 mg/kg/day via oral dosing. Naïve mice (N=5) were also assessed as a normal tissue control.

In assay [2] the test system is ovalbumin (OVA)-induced asthma. Description: Mouse model of ovalbumin (OVA)-induced asthma, eosinophil infiltrate in BALF. The assay is classed as in vivo. As to conditions: three oral doses of 10 mg/kg at 48 h, 24 h, and 1 h prior to assessment; p<0.05. As to the method: A mouse model of ovalbumin (OVA)-induced asthma was used to screen GSNOR inhibitors for efficacy against methacholine (MCh)-induced bronchoconstriction/airway hyper-responsiveness. This is a widely used and well characterized model that presents with an acute, allergic asthma phenotype with similarities to human asthma. Efficacy of GSNOR inhibitors was assessed using a protocol in which GSNOR inhibitors were administered after OVA sensitization and airway challenge, and prior to challenge with MCh. Bronchoconstriction in response to challenge with increasing doses of MCh was assessed using whole body plethysmography (Penh; Buxco). The amount of eosinophil infiltrate into the bronchoaveolar lavage fluid (BALF) was also determined as a measure of lung inflammation. […]
In vivo airway responsiveness to methacholine was measured 24 h after the last OVA challenge in conscious, freely moving, spontaneously breathing mice with whole body plethysmography using a Buxco chamber (Wilmington, N.C.). […] The degree of bronchoconstriction was expressed as enhanced pause (Penh), a calculated dimensionless value, which correlates with the measurement of airway resistance, impedance, and intrapleural pressure in the same mouse. Penh readings were taken and averaged for 4 min. after each nebulization challenge. […]

Assay [3] deals with cigarette smoke-induced COPD. Description: Subchronic (11 day) cigarette smoke exposure COPD model. As to conditions: oral 10 mg/kg/day for 11 days. The assay is classed as in vivo, mouse. How it is done: Infiltration of inflammatory cells into the bronchoalveolar lavage fluid (BALF) and BALF levels of chemokines involved in inflammation and tissue turnover/repair were measured to assess the influences of GSNOR inhibitors on some of the early events associated with the initiation and progression of COPD. […] In animal models, changes in lung pathology are only evident after extended (several months) duration of exposure to cigarette smoke, thus making chronic models prohibitive as effective screening tools. […] The key roles of inflammation in the initiation and progression of COPD, make these short duration models relevant for initial tests of efficacy of novel therapeutics. Subchronic (11 Day) Smoke Exposure Model: Female C57B1/6 mice (N=10 per group) were exposed to cigarette smoke generated from Marlboro 100 cigarettes without filters. Exposure times were 25 min. on study day 1, 35 min. on study day 2, and 45 min. on study days 3 to 11. GSNOR inhibitors were administered one hour prior to smoke exposure on each day. GSNOR inhibitors were dosed orally at 1 to 10 mg/kg/day for 11 days. The effects of GSNOR inhibitors were assessed by quantitating the number of total cells, and leukocytes differentials in the BALF via light microscopy at 24 h after the last exposure. The effect of GSNOR inhibitors were compared to vehicle treated controls and expressed as percent inhibition of the cigarette smoke induced increases in BALF cell numbers. Roflumilast was used as the positive control for the study and was dosed at 5 mg/kg/day. A group of naïve mice (N=10) was exposed to air and dosed with vehicle as a negative control for the study.

Where [4] appears, read: acute model, oral 1 mg/kg/day for 10 consecutive days, prophylactic dosing regimen.

For the compound `O=C(O)c1ccc(-c2ccc3cc(O)ccc3c2)c(Cl)c1` [Example 1, 3-chloro-4-(6-hydroxynaphthalen-2-yl)benzoic acid], the “colon injury (in words)” value in assay [1] (acute DSS-induced IBD) is “attenuated colon injury”. For the same compound, in assay [1] (setting [4]), the “decrease of percent of mice presenting with severe colon injury scores via endoscopy, of vehicle control” value is given as 17% and the “decrease of percent of mice presenting with severe colon injury scores via histopathology, of vehicle control” value is on record as 21%. Besides, the “decrease of percent of mice presenting with severe endoscopy scores, of vehicle control” value in assay [1] (acute model, oral 10 mg/kg/day for 10 days, p<0.05) came out at 72%. For the same compound, in assay [2], the “decrease of eosinophil infiltration in BAL, of vehicle control” value came to 44%. For the same compound, the “inhibition of smoke-induced increase in lymphocytes in BAL” value in assay [3] is 41%. In assay [3] (p<0.05), the “inhibition of smoke-induced increase in macrophages in BAL” value is 40%, the “inhibition of smoke-induced increase in neutrophils in BAL” value was determined as 49% and the “inhibition of smoke-induced increase in total cells in BAL” value is 40%.
